Tests used:
[1] = system: AvsYS1 avenic acid/Fe+3 transporter; assay: Yeast growth assay in liquid medium with phytosiderophore/Fe+3 complex as the only available iron, strain DEY1453 transformed with pJKD1 (pYES2/AvsYS1) or pYES2; format: cell-based, Avena sativa; conditions: for growth of yeast with transporter (DEY1453:pJKD1, 53K): S. cerevisiae DEY1453:pJKD1 (pYES2/AvsYS1), YNB minimal medium pH 7.5, BPDS, iron only as Fe+3 complexed with the substance
Text: AvsYS1 (Genbank FJ477297.1) was isolated using 5′RACE from the roots of iron starved oats (Avena sativa). Primers were designed by comparing one functionally confirmed phytosiderophore/Fe^+3 transporter (HvYS1) and other iron transport proteins. After obtaining a full-length clone, we subcloned the gene (AvsYS1) into a yeast galactose inducible expression vector (pYES2). The resultant plasmid was designated pJKD1. We obtained a yeast strain that lacks the ability to take up ferric iron and transformed it with pYES2 and pJKD1. The transformants were grown under identical conditions in which the only iron available was in the Fe^+3/avenic acid complex.
We engineered the AvsYS1 gene into a galactose inducible expression systems vector (pYES2). Our first major result was the functional confirmation of the AvsYS1 gene. We transformed pYES2 and pJKD1 (pYES2/AvsYS1) into a strain of S. cerevisiae (DEY1453) that lacks the ability to take up Fe^3+. In the process, we developed a new assay based on growth in liquid medium. The advantage of this assay over more traditional assays used in yeast-based PS/Fe^+3 assays is that it is quantifiable. Other assays (e.g., Murata, 2006) grow yeast on a solid plate, and qualitative growth of colonies is used. With our assay, we can generate numerical data based on the density as measured by the absorbance at 600 nm. […] Further detail is provided below.
53Y=DEY1453:pYES2 (no transporter) 53K=DEY1453:pJKD1 (pYES2/AvsYS1 [transporter]) DOB—Complete medium, supplemented w/FeSo4, ampicillin 50 YNB-minimal medium, pH7.5, BPDS (ferrous chelator), ampicillin,
Protocols included: 53Y and 53K in DOB+FeSO4, 53Y and 53K in YNB supplemented with Avenic acid; 53Y and 53K supplemented with BPA-1-068B; 53Y and 53K in YNB w/ no supplements; uninoculated YNB; uninoculated DOB.
53Y=DEY1453:pYES2 (no transporter) 53K=DEY1453:pJKD1 (pYES2/AvsYS1 [transporter]) DOB—Complete medium, supplemented w/FeSo4, ampicillin 50 YNB-minimal medium, pH7.5, BPDS (ferrous chelator), ampicillin, Ø=no supplementation
Protocols included: 53Y and 53K, supplemented with Avenic acid, 53Y and 53K supplemented with BPA-1-068B, 53Y and 53K in YNB w/ no supplements.
3Y=DEY1453:pYES2 (no transporter) 3K=DEY1453:pJKD1 (pYES2/AvsYS1 [transporter]) Strains grown in YNB/Gal, pH 7.5, Amp50, Avenic acid: Fe^+3, 5:1
Another interesting observation was made in relation to growth of the DEY1453:pJKD1 using one of the analogs complexed with Fe^+3. […] This was a very significant result because it provided strong (though not dispositive) evidence in support of our Trojan Horse delivery technology.

[2] = system: Micro-Tom tomatoes, AvsYS1 transformants (MT*) and untransformed (MT); assay: Hydroponic growth of Micro-Tom tomatoes under iron limiting conditions with iron provided as FeCl3/avenic acid; format: in vivo, tomato; conditions: Hoagland's solution (-Fe), pH 7.4, 10 μM FeCl3 complexed with 15 μM avenic acid
Text: RNA was isolated from […]. A cDNA (AvsYSl) was isolated and its functionality confirmed as a phytosiderophore/Fe^+3 transporter that mitigates the effects of Iron Deficiency Chlorosis in transgenic Micro-Tom™ tomatoes when the nutrient medium is supplemented with the oat phytosiderophore, avenic acid. […] Final confirmation of the AvsYS1 transporter's functionality was obtained by comparing Micro-Tom™: AvsYS1 (MT*) transformants with non-transgenic Micro-Tom™ grown hydroponically under iron limiting conditions. (See, e.g., Shikata et al. (2016) “Micro-Tom tomato as an alternative plant model system: mutant collection and efficient transformation” Methods Mol. Biol. 1363:47-55.) Samples were grown in Hoagland's solution (—Fe) at pH 7.4. Iron was provided as 10 μM FeCl3/15 μM avenic acid. Tomatoes normally optimally grow at pH 5.6-6.8. Sample 3 was labelled MT*. This was a Micro-Tom™ variety was transformed with Fe+3/avenic acid transporter isolated from roots of iron starved oats. Sample 4 was an untransformed Micro-Tom™ (MT) plant.
MT* tomatoes grew robustly in Hoagland's solution at a pH of 7.4 supplemented with iron was provided at 10 μM FeCl3 complexed with 15 μM avenic acid.

Q: Which results are given for `O=C(O)[C@H](CCO)NCC[C@H](NCC[C@H](O)C(=O)O)C(=O)O` [avenic acid, Avenic Acid]?
A: growth of yeast with transporter (DEY1453:pJKD1, 53K) [1]: able to grow vigorously; growth of yeast without transporter (DEY1453:pYES2, 53Y) ([1]; S. cerevisiae DEY1453:pYES2 (no transporter), iron only as Fe+3/avenic acid complex): could not; growth of MT* (AvsYS1 transformed) tomatoes ([2]; 16 days): grew robustly; iron deficiency chlorosis in untransformed (MT) tomatoes ([2]; after 16 days): Iron deficiency chlorosis was observed in new leaves

Q: How did the “growth of yeast with transporter (DEY1453:pJKD1, 53K)” value (“growth of yeast with transporter” for short) [1] turn out when `O=C(CC(NCCC(NCC[C@H](O)C(=O)O)C(=O)O)C(=O)O)OCc1ccccc1` (stereo partly drawn) [BPA-1-068B] was run?
A: able to grow

Q: What about the “growth of yeast with transporter” value ([1]; listed as drawing 7) of the same compound?
A: impressive

Q: And the “growth rate of DEY1453:pJKD1” value ([1]; ferric iron supplied with the analog, compared to DEY1453:pYES2 controls)?
A: slower, but undeniably robust

Q: And the “uptake by the avenic acid transporter” value ([1]; yeast, in the presence of iron)?
A: able to be taken up

Q: How did the “growth of yeast with transporter” value [1] turn out when `O=C(O)C(CO)NCCC(NCC[C@H](O)C(=O)O)C(=O)O` (stereo partly drawn) [MGS-2-128BF] was run?
A: supported growth as well as avenic acid
